Results reported in patent US11679065B2, “Compositions with sulfur having enhanced efficacy and aesthetics” (The Procter & Gamble Company, priority 2020, dated 2023).

Legend:
Malassezia [1] = assay: Minimal inhibitory concentration of sulfur (known value); format: cell-based; conditions: generally accepted MIC, gray box in FIGS. 1-4
Method: A dissolution and diffusion model is utilized to help dimension sulfur solubility in sebum over a 24 hour period. The model predicts where sulfur concentration will rise above the minimal inhibitory concentration (MIC is known to be in the range of 10-50 ppm for sulfur), for the fungus that causes dandruff (Malassezia). The model factors in sulfur dissolution varying sebum thickness and sebum production rate over the 24 hour period as well as a loss term for sulfur migration into the scalp/stratum corneum. FIGS. 1-4) show simulation outputs for mean sulfur particles sizes, 2, 34, 100 and 150 micron sulfur particles respectively wherein each graph is a compilation of curves representing variations in initial sebum thickness and production rate. The gray box in each figure represents a range of sulfur concentrations that encompass the generally accepted MIC (log 10(MIC) range is 1-1.7). It is observed from the simulations that as particle size increases, the approximate number of hours that sulfur concentration is above the MIC expands until the particle size of about 150 microns, wherein the dissolution of sulfur in sebum becomes the rate limiting step and the concentration of sulfur never exceeds the MIC needed for a dandruff benefit.

Malassezia [2] = conditions: fungus that causes dandruff (Malassezia); known range; cited from earlier work

S1SSSSSSS1 [Sulfur]
log 10(MIC) range (Malassezia [1]): 1-1.7 | minimal inhibitory concentration (MIC) (Malassezia [2]): 10-50 ppm
